In brackets after ≈: the same amount, converted by molar mass.
Legend:
[1] = Aqueous dissolution/solubility in fasting state simulated gastric fluid (FaSSGF) pH 1.6; conditions: for Conc (solubility): pH 1.6 FaSSGF buffer, ambient temperature, shaken
Source text: Samples of 4-(5-Chloro-2-isopropylaminopyridin-4-yl)-1H-pyrrole-2-carboxylic acid [1-(3-chlorophenyl)-2-hydroxyethyl]amide Form C and 4-(5-Chloro-2-isopropylaminopyridin-4-yl)-1H-pyrrole-2-carboxylic acid [1-(3-chlorophenyl)-2-hydroxyethyl]amide malonate Form A were each shaken at ambient temperature in fasting state simulated gastric fluid (FaSSGF) pH 1.6 for 30. Concentration of 4-(5-Chloro-2-isopropylaminopyridin-4-yl)-1H-pyrrole-2-carboxylic acid [1-(3-chlorophenyl)-2-hydroxyethyl]amide was measured at 5, 15 and 30 minutes.

[2] = Aqueous dissolution/solubility in fasting state simulated intestinal fluid (FaSSIF) pH 6.5 after 30 min in FaSSGF; assay type: physicochemical; conditions: pH 6.5 FaSSIF buffer, after 30 min FaSSGF
Description: After 30 minutes, the samples were removed from FaSSGF, placed in fasting state simulated intestinal fluid (FaSSIF) pH 6.5, with shaking, for an additional 5 hours.

[3] = Pharmacokinetic evaluation in male beagles, two-way cross-over, oral gavage; assay type: in vivo
Source text: […]. […] […]

[4] = pH 1.6, fassgf or other biorelevant, thermodynamic from solid

solubility at 5 min [1, 4] | solubility at 15 min [1, 4] | solubility at 30 min [1, 4] | solubility at 10 min ([2]; fasting state simulated intestinal fluid (FaSSIF), thermodynamic from solid, 10 min, read-out: Conc (solubility)) | solubility at 30 min ([2]; fasting state simulated intestinal fluid (FaSSIF), thermodynamic from solid, 30 min, read-out: Conc (solubility)) | solubility at 60 min ([2]; fasting state simulated intestinal fluid (FaSSIF), thermodynamic from solid, 60 min, read-out: Conc (solubility)) | solubility at 90 min ([2]; fasting state simulated intestinal fluid (FaSSIF), thermodynamic from solid, 90 min, read-out: Conc (solubility)) | solubility at 120 min ([2]; fasting state simulated intestinal fluid (FaSSIF), thermodynamic from solid, 120 min, read-out: Conc (solubility)) | solubility at 180 min ([2]; fasting state simulated intestinal fluid (FaSSIF), thermodynamic from solid, 180 min, read-out: Conc (solubility)) | solubility at 270 min ([2]; fasting state simulated intestinal fluid (FaSSIF), thermodynamic from solid, 270 min, read-out: Conc (solubility)) | solubility at 300 min ([2]; fasting state simulated intestinal fluid (FaSSIF), thermodynamic from solid, 300 min, read-out: Conc (solubility)) | coefficient of variation (CV) of average area under the curve (AUC) ([3]; male, beagle, dog, in vivo, po, 5 mg/kg) | SMILES | Conc (solubility) ([1]; 15 min) | Conc (solubility) ([1]; 30 min) | Conc (solubility) ([2]; 30 min) | Conc (solubility) ([2]; 120 min) | Conc (solubility) ([2]; 270 min) | Conc (solubility) ([2]; 300 min) | coefficient of variation (CV) of average area under the curve (AUC) ([3]; male beagles, single dose 5 mg/kg by oral gavage, plasma 0-24 hours)
 |  |  |  |  |  |  |  |  |  |  |  | CC(C)Nc1cc(-c2c[nH]c(C(=O)NC(CO)c3cccc(Cl)c3)c2)c(Cl)cn1 (stereo not shown) [Form C, 4-(5-Chloro-2-isopropylaminopyridin-4-yl)-1H-pyrrole-2-carboxylic acid [1-(3-chlorophenyl)-2-hydroxyethyl]amide Form C] | 101.35 µg/mL | 136.97 µg/mL | 169.89 µg/mL | 332.68 µg/mL | 128.38 µg/mL | 154.70 µg/mL | 39%
381 µg/mL (≈ 878 µM) | 385 µg/mL (≈ 889 µM) | 369 µg/mL (≈ 851 µM) | 63.3 µg/mL (≈ 146 µM) | 110 µg/mL (≈ 254 µM) | 114 µg/mL (≈ 263 µM) | 115 µg/mL (≈ 266 µM) | 110 µg/mL (≈ 254 µM) | 110 µg/mL (≈ 255 µM) | 116 µg/mL (≈ 267 µM) | 115 µg/mL (≈ 266 µM) | 50% | CC(C)Nc1cc(-c2c[nH]c(C(=O)N[C@H](CO)c3cccc(Cl)c3)c2)c(Cl)cn1 [Malonate Form A, 4-(5-Chloro-2-isopropylaminopyridin-4-yl)-1H-pyrrole-2-carboxylic acid [1-(3-chlorophenyl)-2-hydroxyethyl]amide malonate Form A] |  |  |  |  |  |  | 
